The values below come from patent US20170000775A1, “PHARMACEUTICAL COMPOSITIONS COMPRISING ANTIBACTERIAL AGENTS” (priority 2014, published 2017).

Where a name gives a salt, the structure may show the parent alone.

Experiment [1] concerns A. baumannii NCTC 13302 producing CHDL oxacillinase [OXA-25] beta-lactamase enzymes. Nature of the experiment: Time kill study against A. baumannii NCTC 13302. The format is cell-based, Acinetobacter baumannii. To be noted: sulbactam 8 mcg/ml, sodium salt of Formula (I) 4 mcg/ml, imipenem 16 mcg/ml; for Bacterial count, 0 hour: 0 hour (initial inoculum); for Bacterial count, 0 hour / Bacterial count, 2 hour / Bacterial count, 4 hour / Bacterial count, 6 hour / Bacterial count, 8 hour: alone or combined as labelled; for Effect on bacterial count (in words): throughout the duration of the study. Here is the method: (§1) In a typical time kill study, the freshly grown cultures were diluted to the required cell density (initial starting inoculum) in Cation adjusted Muller Hinton broth medium (BD, USA). The antibacterial agents (either alone or in combination) at the required concentrations were added into the culture-containing medium. The samples were incubated under shaking condition (120 rpm) at 37° C. Enumeration of viable bacterial count was done every 2 hour by diluting in normal saline and plating on to the Tryptic Soya Agar plates (BD, USA). The plates were incubated for 24 hours to arrive at the viable bacterial count. […] In general, the decrease of 1 Log CFU/ml, corresponds to 90% killing of bacteria. Similarly, 2 Log CFU/ml reductions indicates to 99% killing of bacteria and 3 Log CFU/ml reductions is equal to 99.9% killing of bacteria.
(§2) The assay without any antibacterial agent was taken as control. The sodium salt of a compound of Formula (I), was used for antibacterial testing.

In experiment [2] the test system is A. baumannii NCTC 13303 producing CHDL oxacillinase [OXA-26] beta-lactamase enzymes. Nature of the experiment: Time kill study against A. baumannii NCTC 13303. The format is cell-based, Acinetobacter baumannii. The settings on record: sulbactam 8 mcg/ml, sodium salt of Formula (I) 4 mcg/ml, imipenem 8 mcg/ml; for Bacterial count, 0 hour: 0 hour (initial inoculum); for Bacterial count, 0 hour / Bacterial count, 2 hour / Bacterial count, 4 hour / Bacterial count, 6 hour / Bacterial count, 8 hour: alone or combined as labelled; for Effect on bacterial count (in words): throughout the duration of the study. Here is the method: as §1, §2

For `C[C@@H](O)[C@H]1C(=O)N2C(C(=O)O)=C(SCCN=CN)C[C@H]12` [Imipenem, imipenem], in experiment [1], the “Bacterial count, 0 hour” value amounted to 6.36 Log CFU/ml; the “Bacterial count, 2 hour” value worked out at 7.74 Log CFU/ml; the “Bacterial count, 4 hour” value stood at 8 Log CFU/ml; the “Bacterial count, 6 hour” value is 8.32 Log CFU/ml. The “Bacterial count, 8 hour” value in experiment [1] was 8.74 Log CFU/ml. Further, in experiment [2], the “Bacterial count, 0 hour” value was determined as 6.17 Log10CFU/ml; the “Bacterial count, 2 hour” value was found to be 7.84 Log10CFU/ml; the “Bacterial count, 4 hour” value worked out at 8.13 Log10CFU/ml; the “Bacterial count, 6 hour” value came out at 8.26 Log10CFU/ml. Also, the “Bacterial count, 8 hour” value in experiment [2] was 8.23 Log10CFU/ml.
For `N#C[C@@H]1CC[C@@H]2CN1C(=O)N2OS(=O)(=O)O` [Sodium salt of a compound of Formula (I), sulphuric acid, mono[(1R,2S,5R)-2-cyano-7-oxo-1,6-diazabicyclo[3.2.1]oct-6-yl] ester, sodium salt (1:1)], in experiment [1], the “Bacterial count, 0 hour” value is reported as 6.36 Log CFU/ml; the “Bacterial count, 2 hour” value was 7.8 Log CFU/ml; the “Bacterial count, 4 hour” value is reported as 8.0 Log CFU/ml; the “Bacterial count, 6 hour” value was 8.1 Log CFU/ml. For the same compound, in experiment [1], the “Bacterial count, 8 hour” value is recorded as 8.15 Log CFU/ml and the “Effect on bacterial count (in words)” value is on record as “not effective to decrease the bacterial count”. Further, in experiment [2], the “Bacterial count, 0 hour” value stood at 6.17 Log10CFU/ml; the “Bacterial count, 2 hour” value is on record as 7.6 Log10CFU/ml; the “Bacterial count, 4 hour” value is reported as 7.9 Log10CFU/ml; the “Bacterial count, 6 hour” value worked out at 7.95 Log10CFU/ml. For the same compound, in experiment [2], the “Bacterial count, 8 hour” value worked out at 8.1 Log10CFU/ml and the “Effect on bacterial count (in words)” value is “not effective to decrease the bacterial count”.
Regarding `CC1(C)[C@H](C(=O)O)N2C(=O)C[C@H]2S1(=O)=O` [Sulbactam, sulbactam], in experiment [1], the “Bacterial count, 0 hour” value came out at 6.36 Log CFU/ml; the “Bacterial count, 2 hour” value came out at 6.81 Log CFU/ml; the “Bacterial count, 4 hour” value came to 7.4 Log CFU/ml; the “Bacterial count, 6 hour” value amounted to 7.65 Log CFU/ml. Also, in experiment [1], the “Bacterial count, 8 hour” value amounted to 7.31 Log CFU/ml and the “Effect on bacterial count (in words)” value is “not effective to decrease the bacterial count”. Also, in experiment [2], the “Bacterial count, 0 hour” value amounted to 6.17 Log10CFU/ml; the “Bacterial count, 2 hour” value was 7.32 Log10CFU/ml; the “Bacterial count, 4 hour” value is on record as 7.56 Log10CFU/ml; the “Bacterial count, 6 hour” value came to 7.81 Log10CFU/ml. Moreover, in experiment [2], the “Bacterial count, 8 hour” value stood at 7.81 Log10CFU/ml and the “Effect on bacterial count (in words)” value was “not effective to decrease the bacterial count”.
